# Measurements reported in article PMC8879474, “Tissue Transglutaminase but Not Microbial Transglutaminase Is Inhibited by Exogenous Oxidative Substances in Celiac Disease” (International Journal of Molecular Sciences, 2022).
# Biological target: T1, transglutaminase 2 (TG2, tissue transglutaminase) (Homo sapiens, UniProt P21980)
# T1 construct: gene TGM2
# T1 sequence (P21980 2-687): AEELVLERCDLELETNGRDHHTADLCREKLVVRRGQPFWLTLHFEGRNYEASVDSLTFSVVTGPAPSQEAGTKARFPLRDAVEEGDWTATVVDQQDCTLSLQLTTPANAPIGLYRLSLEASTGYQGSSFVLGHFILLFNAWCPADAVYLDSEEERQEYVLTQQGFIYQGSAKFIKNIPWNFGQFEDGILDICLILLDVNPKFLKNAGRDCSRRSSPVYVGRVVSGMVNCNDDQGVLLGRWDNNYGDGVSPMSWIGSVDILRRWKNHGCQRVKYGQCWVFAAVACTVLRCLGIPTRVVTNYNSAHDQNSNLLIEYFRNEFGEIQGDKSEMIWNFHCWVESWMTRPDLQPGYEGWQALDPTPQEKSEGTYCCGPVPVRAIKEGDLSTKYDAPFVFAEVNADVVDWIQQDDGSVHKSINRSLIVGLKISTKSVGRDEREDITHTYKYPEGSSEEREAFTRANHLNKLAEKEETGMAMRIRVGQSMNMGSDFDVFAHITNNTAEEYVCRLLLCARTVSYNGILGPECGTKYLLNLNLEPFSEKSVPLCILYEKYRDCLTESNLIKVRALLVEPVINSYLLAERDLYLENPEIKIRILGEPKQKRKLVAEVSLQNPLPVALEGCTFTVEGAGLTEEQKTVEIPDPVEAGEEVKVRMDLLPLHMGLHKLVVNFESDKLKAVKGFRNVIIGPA
# Experiment: in vitro 5BP transamidation assay with immobilized TG2 ([…]), photometric
# Assay type: biochemical
row,IC50,SMILES
1,140 µM,N[C@@H](CSSC[C@H](N)C(=O)O)C(=O)O [L-cystine]
2,0.7 µM,"CCC(C)SSc1ncc[nH]1 (centres unmarked) [PX12, 1-methylpropyl 2-imidazolyl disulfide]"
